How the values were obtained:
Format in all cases: in vivo
[1] = test system: C57BL/6 (H2Kb), female mice; test: serum cytokine response after first injection; settings: sera of mice 3 and 24 hrs after the first injection
Procedure: Formulation of the compounds for a comparison study requires taking into account the different molecular weights of the core and lipidated molecules, (e.g. 45 and 4.5 μg of the lipidated compound L3 corresponds to approximately to 15 and 1.5 μg of the corresponding core compound, “L3 core”), allowing for the side by side comparison of the corresponding groups in the study. Higher doses of L3 (200 μg) and of L3 core (150 μg) are also tested. In one such study formulations summarized and described below (table 1) are used to vaccinate 6-8 week old C57BL/6 (H2Kb), female mice (10/group). The mice receive two injections 14 days apart and are bled during weeks 1, 3 and 4 (for precise bleed days see FIG. 1). The mice are vaccinated intramuscularly. A heterologous prime/boost using recombinant adenovirus coding for the SIV-p27 protein and adjuvanted p27 are used as control groups, the adenovirus is injected at a dose of 5×10^8 VP. The study design is represented in FIG. 1.
Additional investigation illustrates the ability of lipidated TLR7/8 compounds to induce innate chemokines and pro-inflammatory cytokines among which type I IFN is known to be required for the programming of naïve CD8-T-cell (survival, differentiate and memory development). These cytokines are measured in the sera of mice 3 and 24 hrs after the first injection (FIGS. 5 and 6).

[2] = test system: C57BL/6 (H2Kb), female mice; test: antigen-specific CD4 T cell response, intracellular cytokine staining of PBLs after vaccination; settings: liposome-based MPL and QS-21-containing formulation; vs control formulation; dose dependent; FIG. 4
Procedure: (§1) Formulation of the compounds for a comparison study requires taking into account the different molecular weights of the core and lipidated molecules, (e.g. 45 and 4.5 μg of the lipidated compound L3 corresponds to approximately to 15 and 1.5 μg of the corresponding core compound, “L3 core”), allowing for the side by side comparison of the corresponding groups in the study. Higher doses of L3 (200 μg) and of L3 core (150 μg) are also tested. In one such study formulations summarized and described below (table 1) are used to vaccinate 6-8 week old C57BL/6 (H2Kb), female mice (10/group). The mice receive two injections 14 days apart and are bled during weeks 1, 3 and 4 (for precise bleed days see FIG. 1). The mice are vaccinated intramuscularly. A heterologous prime/boost using recombinant adenovirus coding for the SIV-p27 protein and adjuvanted p27 are used as control groups, the adenovirus is injected at a dose of 5×10^8 VP. The study design is represented in FIG. 1. […]
(§2) The induction of antigen-specific CD8 and CD4 responses is assessed by measuring intracellular cytokines 7 days after the second injection. […] The secretion of cytokines is blocked by Brefeldin A and the presence of 3 cytokines (IFNγ, TNFα and IL2) is evaluated by flow cytometry after intracellular staining with appropriate antibodies.

[3] = test system: C57BL/6 (H2Kb), female mice; test: p27-specific CD8 response, intracellular cytokine staining of PBLs after vaccination; settings: 7 days after the second immunization; co-administered with MPL and QS-21 formulations; vs control formulation without TLR7/8L; intramuscular; FIG. 2
Procedure: as §1, §2

CCCCCCCCCCCCCCCC(=O)OC[C@H](COP(=O)(O)OCCn1c(COCC)nc2c(N)nc3ccccc3c21)OC(=O)CCCCCCCCCCCCCCC [Compound L3, 4-Amino-1-[2-(1,2-dipalmitoyl-sn-glycero-3-phospho)ethyl]-2-ethoxymethyl-1H-imidazo[4,5-c]quinoline]
IL-6 in serum ([1]; added to QS21 and MPL): enhanced | TNFα in serum ([1]; added to QS21 and MPL): enhanced | IL-12p70 production in serum ([1]; with QS21 and MPL): Low IL-12p70 production, close to background level | Level of INFγ in serum ([1]; with QS21 and MPL): increased at low dose | IFNα in serum ([1]; with QS21 and MPL, FIGS. 5 and 6): in a dose-dependent manner and at higher level than for its core counterpart | p27-specific CD4 frequency [2]: increased | p27-specific CD8 frequency [3]: clearly increased

Source: patent publication US8946421B2, “Lipidated imidazoquinoline derivatives” (GlaxoSmithKline Biologicals S.A., priority 2008, dated 2015)
